Values quoted from earlier work in patent publication US20230405009A1, “METHODS FOR TREATING HEMATOLOGIC MALIGNANCIES WITH AMINO-PYRROLOPYRIMIDINONE COMPOUNDS” (Merck Sharp & Dohme LLC, priority 2020, published 2023).

Key:
CLL mouse models = conditions: Reiff et al. Cancer Discovery 2018
DLBCL mouse models = conditions: Reiff et al. Cancer Discovery 2018

O=C(c1ccc(Oc2ccccc2)cc1Cl)c1c[nH]c2ncnc(N[C@@H]3CC[C@@H](CO)OC3)c12 [Compound A]
efficacy compared with ibrutinib in CLL mouse models (CLL mouse models): superiority over ibrutinib | efficacy compared with ibrutinib in DLBCL mouse models (DLBCL mouse models): superiority over ibrutinib
